Source: US20110183969A1, “ANTIFUNGAL COMBINATION THERAPY” (priority 2008, published 2011)
Converted amounts (≈) assume the structure as drawn.

Experiments:
Experiment in all cases: MIC (YAG medium)
Assay type in all cases: cell-based
[1] = test system: Aspergillus fumigatus AF210; conditions: YAG medium, MIC banded into grades, AF210; for MIC: Aspergillus fumigatus, read-out: MIC A. fumigatus 210 (grade)
Summary of the method: (§1)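 MIC in mg/L, defined as >70% growth inhibition relative to drug-free control by optical density at 485 nm. Plates held 24 hrs at 35° C with Aspergillus inocula of 1-2×10^4 cfu/mL in YAG medium (1% glucose, 1% ammonium chloride, 0.5% yeast extract). Compounds tested at 50-0.05 mg/L, repeated at 0.5-0.0005 mg/L where needed.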

Aspergillus flavus = conditions: YAG medium, MIC banded into grades; for MIC: Aspergillus flavus, read-out: MIC A. flavus (grade)
Summary of the method: as §1

Aspergillus niger = conditions: YAG medium, MIC banded into grades; for MIC: Aspergillus niger, read-out: MIC A. niger (grade)
Summary of the method: as §1

Aspergillus terreus AT4 = conditions: YAG medium, MIC banded into grades, AT4; for MIC: Aspergillus terreus, read-out: MIC A. terreus (grade)
Summary of the method: as §1

Aspergillus terreus AT49 = conditions: YAG medium, MIC banded into grades, AT49; for MIC: Aspergillus terreus, read-out: MIC A. terreus 49 (grade)
Summary of the method: as §1

[2] = test system: Aspergillus fumigatus AF293; conditions: YAG medium, MIC banded into grades, AF293; for MIC: Aspergillus fumigatus, read-out: MIC A. fumigatus (grade)
Summary of the method: as §1

Molecule	MIC A. fumigatus 210 (grade) [1]	MIC A. flavus (grade) (Aspergillus flavus)	MIC A. niger (grade) (Aspergillus niger)	MIC A. terreus (grade) (Aspergillus terreus AT4)	MIC A. terreus 49 (grade) (Aspergillus terreus AT49)	MIC A. fumigatus (grade) [2]	MIC [1]	MIC (Aspergillus flavus)	MIC (Aspergillus niger)	MIC (Aspergillus terreus AT4)	MIC (Aspergillus terreus AT49)	MIC [2]
Cc1ccccc1-c1cc2ccccn2c1C(=O)C(=O)Nc1ccc(N2CCN(Cc3ccco3)CC2)cn1 [Example 35, N-[5-(2-Furan-2-yl-methyl-piperazin-yl)-peridin-2-yl]-2-oxo-2-(2-o-tolyl-indolizin-3-yl)-acetamide]	3 (A grade of 3 represents an MIC of less than 1 mg/L)	3 (A grade of 3 represents an MIC of less than 1 mg/L)	3 (A grade of 3 represents an MIC of less than 1 mg/L)	3 (A grade of 3 represents an MIC of less than 1 mg/L)	3 (A grade of 3 represents an MIC of less than 1 mg/L)	3 (A grade of 3 represents an MIC of less than 1 mg/L)	–	–	–	–	–	–
O=C(Nc1ccc(N2CCN(S(=O)(=O)c3cccnc3)CC2)cc1)C(=O)c1c(-c2ccccc2)cc2ccccn12 [Example 51, 2-Oxo-2-(2-phenyl-indolizin-3-yl)-N-{4-[4-(pyridine-3-sulfonyl)-piperazin-1-yl]-phenyl}-acetamide]	–	–	–	–	–	–	< 1 µg/mL	< 1 µg/mL	< 1 µg/mL	< 1 µg/mL	< 1 µg/mL	< 1 µg/mL
CCOCCN(C1=NC(C)(C)CO1)c1ccc(NC(=O)C(=O)c2c(-c3ccccc3)cc3ccccn23)cc1 [Example 28]	2 (A grade of 2 represents an MIC of from 1 to 10)	2 (A grade of 2 represents an MIC of from 1 to 10)	3 (A grade of 3 represents an MIC of less than 1 mg/L)	2 (A grade of 2 represents an MIC of from 1 to 10)	2 (A grade of 2 represents an MIC of from 1 to 10)	2 (A grade of 2 represents an MIC of from 1 to 10)	–	–	–	–	–	–
O=C(Nc1ccc(N2CCN(c3ccc(CN4CCOCC4)cc3)CC2)cc1)C(=O)c1c(-c2ccccc2)cc2ccccn12 [Example 56, N-{4-[4-(4-Morpholin-4-ylmethyl-phenyl)-piperazin-1-yl]-phenyl}-2-oxo-2-(2-phenyl-indolizin-3-yl)-acetamide]	–	–	–	–	–	–	< 1 µg/mL	< 1 µg/mL	< 1 µg/mL	< 1 µg/mL	< 1 µg/mL	< 1 µg/mL
O=C(Nc1ccc(N2CCC(N3CCOCC3)CC2)cc1)C(=O)c1c(-c2ccccc2Cl)cc2ccccn12 [Example 26, 2-[2-(2-Chloro-phenyl)-indolizin-3-yl]-N-[4-(4-morpholin-4-yl-piperidin-1-yl)-phenyl]-2-oxo-acetamide]	–	–	–	–	–	–	< 1 µg/mL	< 1 µg/mL	1 to 10 µg/mL (≈ 1.84 to 18.4 µM)	1 to 10 µg/mL (≈ 1.84 to 18.4 µM)	< 1 µg/mL	1 to 10 µg/mL (≈ 1.84 to 18.4 µM)
Cc1c(-c2ccccc2)c2ccccn2c1C(=O)C(=O)Nc1ccc(N2CCOCC2)cc1 [Example 7, 2-(2-methyl-1-phenyl-indolizin-3-yl)-N-(4-morpholin-4-yl-phenyl)-2-oxo-acetamide]	–	–	–	–	–	–	> 10 µg/mL	> 10 µg/mL	> 10 µg/mL	> 10 µg/mL	> 10 µg/mL	> 10 µg/mL
CCc1cccc(N2CCN(c3ccc(NC(=O)C(=O)c4c(-c5ccccc5)cc5ccccn45)cc3)CC2)n1 [Example 73, N-{4-[4-(6-ethyl-pyridin-2-yl)-piperazin-1-yl]-phenyl}-2-oxo-2-(2-phenyl-indolizin-3-yl)-acetamide]	–	–	–	–	–	–	< 1 µg/mL	< 1 µg/mL	< 1 µg/mL	< 1 µg/mL	< 1 µg/mL	< 1 µg/mL
Cc1nccn1CCCOc1ccc(NC(=O)C(=O)c2c(-c3ccccc3)cc3ccccn23)cc1C(C)C [Example 20, N-{3-Isopropyl-4-[3-(2-methyl-imidazol-1-yl)-propoxy]-phenyl}-2-oxo-2-(2-phenyl-indolizin-3-yl)-acetamide]	–	–	–	–	–	–	1 to 10 µg/mL (≈ 1.92 to 19.2 µM)	< 1 µg/mL	> 10 µg/mL	1 to 10 µg/mL (≈ 1.92 to 19.2 µM)	< 1 µg/mL	1 to 10 µg/mL (≈ 1.92 to 19.2 µM)
Cc1nc(C(C)C)cn1C(C)(C)c1cccc(NC(=O)C(=O)c2c(-c3ccccc3)cc3ccccn23)c1 [Example 25]	1 (a grade of 1 represents an MIC of greater than 10 mg/L)	2 (A grade of 2 represents an MIC of from 1 to 10)	1 (a grade of 1 represents an MIC of greater than 10 mg/L)	2 (A grade of 2 represents an MIC of from 1 to 10)	2 (A grade of 2 represents an MIC of from 1 to 10)	1 (a grade of 1 represents an MIC of greater than 10 mg/L)	–	–	–	–	–	–
CC(C)c1nccn1CCOC(=O)C(C)(C)c1ccc(NC(=O)C(=O)c2c(-c3ccccc3)cc3ccccn23)cc1 [Example 18, 2-methyl-2-{4-[2-oxo-2-(2-phenyl-indolizin-3-yl)-acetylamino]-phenyl}-propionic acid 2-(2-isopropyl-imidazol-1-yl)-ethyl ester]	–	–	–	–	–	–	> 10 µg/mL	> 10 µg/mL	> 10 µg/mL	> 10 µg/mL	1 to 10 µg/mL (≈ 1.78 to 17.8 µM)	> 10 µg/mL
Cc1cc(C)nc(CNc2ccc(NC(=O)C(=O)c3c(-c4ccccc4)cc4ccccn34)cc2)c1 [Example 91, N-{4-[(4,6-Dimethyl-pyridin-2-ylmethyl)-amino]-phenyl}-2-oxo-2-(2-phenyl-indolizin-3-yl)-acetamide]	–	–	–	–	–	–	< 1 µg/mL	< 1 µg/mL	< 1 µg/mL	< 1 µg/mL	< 1 µg/mL	< 1 µg/mL
Cc1cc(C)nc(N2CCN(c3ccc(NC(=O)C(=O)c4c(C5CCCC5)cc5ccccn45)cc3)CC2)c1 [Example 47, 2-(2-Cyclopentyl-indolizin-3-yl)-N-{4-[4-(4,6-dimethyl-pyridin-2-yl)-piperazin-1-yl]-phenyl}-2-oxo-acetamide]	–	–	–	–	–	–	< 1 µg/mL	< 1 µg/mL	< 1 µg/mL	< 1 µg/mL	< 1 µg/mL	< 1 µg/mL
N-[4-(3-Ethyl-1H-imidazol-2yl methyl)-phenyl]-2-oxo-2-(2-o-tolyl-indolizin-3yl)-acetamide [Example 30]	1 (a grade of 1 represents an MIC of greater than 10 mg/L)	1 (a grade of 1 represents an MIC of greater than 10 mg/L)	1 (a grade of 1 represents an MIC of greater than 10 mg/L)	1 (a grade of 1 represents an MIC of greater than 10 mg/L)	1 (a grade of 1 represents an MIC of greater than 10 mg/L)	1 (a grade of 1 represents an MIC of greater than 10 mg/L)	–	–	–	–	–	–
N-{4-[4-(2,6-Dimethyl-pyrimidin-4-yl)-piperazin-1-yl]-phenyl}-2-(2-phenyl-indolizin-3-yl)-acetamide [Example 45]	3 (A grade of 3 represents an MIC of less than 1 mg/L)	3 (A grade of 3 represents an MIC of less than 1 mg/L)	2 (A grade of 2 represents an MIC of from 1 to 10)	3 (A grade of 3 represents an MIC of less than 1 mg/L)	3 (A grade of 3 represents an MIC of less than 1 mg/L)	3 (A grade of 3 represents an MIC of less than 1 mg/L)	–	–	–	–	–	–
COCCOc1cc(C)nc(N2CCN(c3ccc(NC(=O)C(=O)c4c(-c5ccccc5)cc5ccccn45)cc3)CC2)c1 [Example 57, N-(4-{4-[4-(2-Methoxy-ethoxy)-6-methyl-pyridin-2-yl]-piperazin-1-yl}-phenyl)-2-oxo-2-(2-phenyl-indolizin-3-yl)-acetamide]	–	–	–	–	–	–	< 1 µg/mL	< 1 µg/mL	< 1 µg/mL	< 1 µg/mL	< 1 µg/mL	< 1 µg/mL
